Test results as given in patent US7470815B1, “Selective neuronal nitric oxide synthase inhibitors” (Northwestern University, priority 2006, dated 2008).
Non-standard residues stand in square brackets, D forms with d. Residues, ends and D or L forms follow the SMILES beside them. dArg(NO2) = N=C(NCCC[C@@H](N)C(=O)O)N[N+](=O)[O-]

Key:
recombinant rat nNOS [1] = target: T1, recombinant rat nNOS (Rattus norvegicus, UniProt P29476); assay: NOS hemoglobin capture assay, inhibition of nNOS; assay type: biochemical; settings: Dixon analysis and method of Cornish and Bowden
T1 construct: made in house; host or cells: E. coli

recombinant rat nNOS [2] = target: T1, recombinant rat nNOS; settings: prior art compound; cited from earlier work

type of inhibition of nNOS (recombinant rat nNOS [1])	Structure (SMILES)	selectivity for nNOS over iNOS (recombinant rat nNOS [2]) [fold]
competitive inhibition	N=C(NCCC[C@H](N)CNc1ccccc1CCN)N[N+](=O)[O-] [Compound 26, N-(4S)-{4-Amino-5-[2-(2-aminoethyl)phenylamino]-pentyl}-N′-nitroguanidine]	
	COC(=O)[C@@H](CCCN=C(N)N[N+](=O)[O-])NC(=O)[C@H](N)Cc1ccccc1 [D-Phe-D-Arg^NO2-OMe] (H-[dF]-[dArg(NO2)]-OMe)	1800
